Experiments:
[1] = Stability of curcumin in human liver microsomes in the absence and presence of 10 μM xanthohumol (Example 4)
Method: The objective of this study was to determine the stability of curcumin in human liver microsomes in the absence and presence of xanthohumol at a concentration of 10 μM, which is 10 fold higher than the previous study.
The objective of this study was to determine the stability of curcumin in human liver microsomes in the absence and presence of 10 μM xanthohumol.
(§1) Mixed-gender human liver microsomes (Lot #1210347) were purchased from XenoTech. The reaction mixture, minus cofactors, was prepared as described below. The test article was added into the reaction mixture at a final concentration of 1 μM. A second experiment was also performed with 10 μM xanthohumol also present in the reaction mixture. The control compounds, testosterone and 7-hydroxycoumarin (7-HC), were run simultaneously with the test article in separate reactions. An aliquot of the reaction mixture (without cofactors) was equilibrated in a shaking water bath at 37° C. for 3 minutes. The reaction was initiated by the addition of cofactors, and the mixture was incubated in a shaking water bath at 37° C. Aliquots (100 μL) were withdrawn at 0, 10, 20, 30, and 60 minutes for the test article and 0, 10, 30, and 60 minutes for testosterone and 7-HC. All samples were immediately combined with 400 μL of ice-cold 50/50 acetonitrile/H2O containing 0.1% formic acid and internal standard to terminate the reaction. The samples were then mixed and centrifuged to precipitate proteins. All samples were assayed by LC-MS/MS using electrospray ionization. Analytical conditions are outlined in Appendix 1. The peak area response ratio (PARR) to internal standard was compared to the PARR at time 0 to determine the percent remaining at each time point. Half-lives were calculated using GraphPad software, fitting to a single-phase exponential decay equation.

[2] = Stability of curcumin in human liver microsomes in the absence and presence of 1 μM xanthohumol (Example 3); settings: both
Method: The objective of this study was to determine the stability of curcumin in human liver microsomes in the absence and presence of xanthohumol at a concentration of 1 μM.
as §1, with “μM.” for “μM. A”, “with 1” for “with 10”

[3] = both, human, microsomes, Half-life

Q: Which results are given for C[C@]12CC[C@H]3[C@@H](CCC4=CC(=O)CC[C@@]43C)[C@@H]1CC[C@@H]2O [Testosterone, testosterone]?
A: microsomal CLint ([1]; both, human, microsomes): 57.7 µL/min/mg; half-life ([1]; control compounds, human liver microsomes, separate reactions, Example 4): 24 min; microsomal CLint [2]: 74 µL/min/mg

Q: Which results are given for COc1cc(C=CC(=O)CC(=O)C=Cc2ccc(O)c(OC)c2)ccc1O [Curcumin, 1,7-Bis(4-hydroxy-3-methoxyphenyl)-1,6-heptadiene-3,5-dione]?
A: half-life ([1]; both, human, microsomes, 1 μM): < 10 min; microsomal CLint at 1 μM ([1]; both, human, microsomes, CLint): > 139 µL/min/mg; microsomal CLint at 1 μM ([1]; both, human, microsomes, CLint (value in parentheses)): 296 µL/min/mg; half-life at 1 μM [1, 3]: < 10 min; half-life at 1 μM ([1]; both, human, microsomes, Half-life (value in parentheses)): 4.7 min; half-life at 1 μM ([2]; human, microsomes): 4.4 min; microsomal CLint at 1 μM ([2]; human, microsomes): 313 µL/min/mg

Q: For O=c1ccc2ccc(O)cc2o1 [7-HC, 7-hydroxycoumarin], which microsomal CLint ([1]; both, human, microsomes, CLint) is on record?
A: 120 µL/min/mg

Q: And the half-life [1, 3]?
A: 12 min

Q: And the half-life ([2]; human, microsomes)?
A: 10 min

Q: What about the microsomal CLint ([2]; human, microsomes) of the same compound?
A: 136 µL/min/mg
